Experiments:
[1] = tested on: Tregs in the peripheral blood; experiment: Proportion of Tregs in peripheral blood of chronic myelogenous leukemia patients treated with Gleevec (FACS, CD45RA/FoxP3); assay type: in vivo, human; settings: peripheral blood after treatment
Experimental: Specifically, peripheral blood mononuclear cells in the peripheral blood were harvested, CD4^+ cells were gated using anti-CD4 antibody labeled with BD Horizon V500, and the cells were stained with FITC-labeled anti-CD45RA antibody and PE-labeled anti-FoxP3 antibody. Subsequently, CD45RA and FoxP3 expression levels were measured by FACS analysis. For comparison, the proportion of Tregs in the peripheral blood of a healthy donor was similarly measured.
In FIG. 1, fraction I (CD45RA^+FoxP3^low) represents naive Tregs, fraction II (CD45RA^−FoxP3^high) represents effector Tregs, and fraction III (CD45RA^−FoxP3^low) represents non-suppressive Tregs.

[2] = tested on: CD45RA-FoxP3high cells (fraction II: effector Tregs); experiment: Apoptosis of fractionated T cells cultured with imatinib (Annexin V and 7-AAD); assay type: cell-based, human; settings: effector Tregs of a healthy donor, cultured 5 days at 37 C
effector Tregs [3] = experiment: Effector Tregs after imatinib addition and antigen stimulation, healthy donor peripheral blood; assay type: cell-based, human; settings: imatinib 5 uM, 1 day, then antigen 10 uM, 10 days; healthy donors HD1-HD3
[4] = tested on: Melan A-specific CD8+ T cells; experiment: Melan-A-specific CD8+ T cell induction, healthy donor peripheral blood (tetramer); assay type: cell-based, human; settings: imatinib 5 uM, 1 day, then Melan-A 10 uM, 10 days; healthy donors
[5] = tested on: cytomegalovirus-specific CD8+ T cells; experiment: Cytomegalovirus-specific CD8+ T cell induction, healthy donor peripheral blood (tetramer); assay type: cell-based, human; settings: imatinib 5 uM, then cytomegalovirus antigen 10 uM, 10 days; healthy donor HD1
effector Tregs [6] = experiment: Effector Tregs after imatinib addition and Melan-A stimulation, malignant melanoma patient peripheral blood; assay type: cell-based, human; settings: imatinib 5 uM, 1 day, then Melan-A 10 uM, 10 days; melanoma patients Pt1-Pt3
Experimental: (§1) […]. Initially, Gleevec (Novartis Pharma K.K.; […]. Subsequently, cancer antigen (Melan-A) was added at a concentration of 10 μM to stimulate the cells, and the cells were cultured at 37° C. for 10 days. After the culture, the number of effector Tregs was measured as in Test Example 1 above. In addition, after the culture, analysis with the tetramer was performed as in Test Example 6 above to examine specific CD8^+ T cell induction.

[7] = tested on: Melan-A-specific CD8+ T cells; experiment: Specific CD8+ T cell induction, malignant melanoma patient peripheral blood (tetramer); assay type: cell-based, human; settings: imatinib 5 uM, 1 day, then Melan-A 10 uM, 10 days; melanoma patients Pt1-Pt3
Experimental: as §1

[8] = tested on: influenza virus-specific CD8+ T cells; experiment: Influenza virus-specific CD8+ T cell induction, healthy donor peripheral blood (tetramer); assay type: cell-based, human; settings: imatinib 5 uM, then influenza virus antigen peptide 10 uM
Experimental: Specifically, analysis on specific CD8^+ T cell induction was performed as in Test Example 6 above, except that instead of cytomegalovirus antigen, an influenza virus antigen peptide was added at a concentration of 10 μM to stimulate the cells, and that influenza-specific tetramer was used.

Ki-67+ Treg cells = experiment: Inhibitory action upon Treg cells in vivo, FACS of spleen cells of BALB/c mice; settings: 2 mg or 8 mg imatinib once a day for 1 week, orally or intraperitoneally
Experimental: The expression of Foxp3 and CD25 in CD4^+ T cells and the expression of Ki-67 and CD44 in CD4^+Foxp3^+ T cells were analyzed by FACS.

[9] = tested on: CD45RA-FoxP3high cells (fraction II: effector Tregs); experiment: Ki-67 expression in effector Tregs cultured in the presence of imatinib (FACS); assay type: cell-based, human; settings: imatinib 10 uM, cultured 4 days
Caspase 3/7 = Caspase 3/7 activation in T cell fractions cultured with imatinib under anti-CD3/anti-CD28 stimulation; assay type: cell-based, human; settings: imatinib 10 uM, 4 days, anti-CD3/anti-CD28 beads; effector Treg-specific
Experimental: […]; Novartis Pharma K.K.; […]. After the culture, the activation level of Caspase 3/7 in T cells of each fraction was measured using CellEvent Caspase 3/7 green and SYTOX AADvanced. […].
In FIG. 18, the vertical axis represents the proportion (%) of T cells having activated Caspase 3/7. […]

[10] = tested on: effector Tregs in the peripheral blood; experiment: Proportion of effector Tregs in peripheral blood of patients switched from Gleevec to nilotinib; assay type: in vivo, human; settings: three patients (Cases 1, 2 and 3), CMR state after switching to nilotinib
BCR-ABL = settings: cited from earlier work
[11] = tested on: leukemic cells bearing Bcr-Abl gene; experiment: Molecular response of chronic myelogenous leukemia patients switched to nilotinib; settings: three patients in which CMR was not achieved by Gleevec

Compound | naive Tregs (fraction I) in CD4+ cells ([1]; CMR patients (49)) | proportion of effector Tregs (fraction II) in CD4+ cells ([1]; CMR patients (49)) | naive Tregs (fraction I) in CD4+ cells ([1]; Non-CMR patients (38)) | proportion of effector Tregs (fraction II) in CD4+ cells ([1]; Non-CMR patients (38)) | proportion of apoptotic cells [2] | number of effector Tregs (effector Tregs [3]) | Melan-A-specific CD8+ T cell induction [4] | cytomegalovirus-specific CD8+ T cell induction [5] | number of effector Tregs (effector Tregs [6]) | specific CD8+ T cell induction (immune responses against malignant melanoma) [7] | influenza virus-specific CD8+ T cell induction [8] | expression of Ki-67 and CD44 in CD4+Foxp3+ T cells of spleen (Ki-67+ Treg cells) | expression level of Ki-67 in effector Tregs [9] | proportion (%) of T cells having activated Caspase 3/7 (Caspase 3/7) | proportion of effector Tregs in the peripheral blood [10] | affinity for BCR-ABL relative to imatinib (BCR-ABL) | complete molecular response (CMR) [11]
Cc1ccc(NC(=O)c2ccc(CN3CCN(C)CC3)cc2)cc1Nc1nccc(-c2cccnc2)n1 [imatinib] | reduction in naive Tregs | significant reduction in the proportion of effector Tregs | no reduction in naive Tregs | no reduction in the proportion of effector Tregs | increases the proportion of apoptotic cells | induces a reduction in effector Tregs | potentiation of Melan-A-specific CD8^+ T cell induction | potentiated the induction of cytomegalovirus-specific CD8^+ T cells | induces a reduction in effector Tregs | activation of immune responses against malignant melanoma | potentiates the induction of influenza virus-specific CD8^+ T cells | selectively inhibits Ki-67^+ Treg cells | selectively reduced | activates Caspase 3/7 | – | – | –
Cc1cn(-c2cc(NC(=O)c3ccc(C)c(Nc4nccc(-c5cccnc5)n4)c3)cc(C(F)(F)F)c2)cn1 [nilotinib] | – | – | – | – | – | – | – | – | – | – | – | – | – | – | a reduction in effector Tregs was not observed | higher affinity for BCR-ABL than that of imatinib | CMR was achieved

— patent publication US20170216288A1, “IMMUNOPOTENTIATOR POTENTIATING TUMOR IMMUNITY OR INFECTION IMMUNITY” (priority 2014, published 2017)
